From patent publication US7732633B2, “Arylsulfinate salts in photoinitiator systems for polymerization reactions” (3M Innovative Properties Company, priority 2003, dated 2010)

Columns and labels:
[1] = in N,N-dimethylformamide, 0.1 molar TBA PF6, versus Ag/0.01M AgNO3 reference electrode, peak current, first scan, 100 mV/sec
Experimental: The oxidation potential can be determined using cyclic voltammetry. As described herein, the oxidation potential is measured by dissolving the compound of interest in a non-aqueous solvent (i.e., N,N-dimethylformamide) containing a supporting electrolyte (i.e., 0.1 moles/liter tetrabutylammonium hexafluorophosphate). The resulting solution is purged with an inert gas such as argon. A three-electrode configuration is used that includes a working electrode (i.e., a glassy carbon electrode), a reference electrode (i.e., a silver wire in a 0.01 moles/liter of silver nitrate dissolved in acetonitrile), and a counter electrode (i.e., a platinum wire). The oxidation or reduction potential is the voltage corresponding to the maximum current for the oxidation reaction.
The scan rates were 100 mV/sec.
The electrochemical measurements were made using a three-electrode configuration: a reference electrode, a working electrode, and a counter electrode. The reference electrode was a fritted electrode (obtained from Sargent Welch, Buffalo Grove, Ill.) that was filled with 0.01M AgNO3 in acetonitrile and fitted with a silver wire 1 mm in diameter by approximately 19 cm in length. The counter electrode was a platinum wire 1.0 mm in diameter and approximately 16 cm long (overall length) formed into a coil having a coil diameter of approximately 10 mm and a coil length of about 7.5 cm. The working electrode was a glassy carbon electrode, approximately 3.5 mm in diameter (obtained from BAS, Inc., West Lafayette, Ind.). The glassy carbon electrode was polished using first a 3.0 micron aluminum oxide powder/deionized water slurry, then a 0.3 micron alpha alumina powder/deionized water slurry. The polishing powders were obtained from Buehler LTD, Evanston, Ill.
The cell was a 50 mL four neck round bottom flask. Each electrode was sealed in the flask using the appropriately sized rubber septum. The fourth inlet was used to introduce an argon purge to remove oxygen and keep atmospheric moisture out of the cell.
The supporting electrolyte was tetrabutylammonium hexafluorophosphate (TBA PF6) (obtained from Southwestern Analytical Chemicals, Inc., Austin, Tex.). The TBA PF6 was dried overnight in a vacuum oven at 80-90° C. before each experiment. The solvent was N,N-dimethylformamide (DMF), and it was used as received without further purification. The solvent was transferred to the electrochemical cell via syringe under an argon atmosphere to minimize atmospheric moisture uptake.
Electrochemical measurements were made by first preparing a 0.1 molar solution of TBA PF6 in DMF. […] The potential was determined at the peak current for the oxidation or reduction reaction on the first scan.

[2] = time to oxidize 50 weight percent of the compound at room temperature; solutions in acetonitrile-d3; pseudo-first order kinetics
Experimental: The oxidative stability of the exemplary substituted arylsulfinates was determined by proton nuclear magnetic resonance spectroscopy. Spectra of solutions of the compounds in acetonitrile-d3 were obtained at regular intervals. The resonances of the alkyl groups in the cations were used as an internal standard to assess the oxidation of the anion.

Substance | Eox [1] [V] | t1/2 [2] [days]
tetrabutylammonium 4-cyanobenzenesulfinate [Example 4] | 0.15 | >300
tetrabutylammonium 4-ethoxycarbonylbenzenesulfinate [Example 2] | 0.11 | 
tetrabutylammonium 4-trifluoromethylbenzenesulfinate [Example 3] | 0.18 | 
tetrabutylammonium 4-chlorobenzenesulfinate [Example 1] | 0.09 | 
